{"source": "patent US20110281956A1", "about": "“USE OF THYMUS CAPITATUS EXTRACT, SATUREJA HORTENSIS EXTRACT, OR CARVACROL FOR TREATING METABOLIC DISEASES” (INDUSTRY-ACADEMIC COOPERATION FOUNDATION, YONSEI UNIVERSITY, priority 2009, published 2011)", "key": {"[1]": {"system": "leiomyosarcoma cells isolated from rats cancer-induced with 3,4-benzopyrene", "settings": "carvacrol at 67 μM for 24 hours or at 90 μM for 48 hours; cited from earlier work"}, "[2]": {"system": "preadipocytes 3T3-L1", "assay": "Adipocyte differentiation inhibition, Oil Red O staining", "assay_type": "cell-based, mouse", "settings": "14 days", "method": "The effect of carvacrol […] on adipocyte differentiation and growth was investigated using mouse adipocytes (3T3-L1). Preadipocytes 3T3L1 were placed on a 12-well plate and cultured to confluency in a 5% CO2 incubator at 37° C. using DMEM containing 1% penicillin-streptomycin, 1% non-essential amino acids and 10% fetal bovine serum (FBS). The cultured 3T3-L1 cells were differentiated into adipocytes by culturing for 2 days in a medium containing 0.5 mM methylisobutylxanthine/1 μM dexamethasone/1 μg/mL insulin (DMI). The cells were differentiated into mature adipocytes by further culturing for 2 days in DMEM containing 1 μg/mL insulin. Subsequently, they were further cultured for 10 days while changing DMEM every other day to obtain fully differentiated adipocytes.\nStarting from the day when DMI was added to the 3T3-L1 cells, carvacrol was treated at concentrations of 0.1, 1, 10, 50 and 100 μM every other day. Carvacrol was purchased from Sigma and used after dissolving in DMSO. For negative control, only DMSO was used. After the culturing for a total of 14 days, when the cells were fully differentiated, the medium was removed and the fats contained in the differentiated adipocytes were stained. […]\nTo measure the triglyceride level of the differentiated 3T3-L1 cells, the stained cells were dissolved in 1 mL of isobutanol and OD value was measured at 600 nm."}, "[3]": {"system": "C57BL/6J mice on high-fat diet", "assay": "Carvacrol-containing high-fat diet fed to mice for 10 weeks: abdominal fat, blood lipids, glucose, insulin, liver lipids", "assay_type": "in vivo, mouse", "method": "High-fat diet (HFD: 40% fat calorie, 17 g lard+3% corn oil/100 g diet) was used to induce obesity. Carvacrol-containing diet had the same composition as the HFD except for containing 0.1% carvacrol. Normal diet (ND) was prepared according to AIN-76 rodent diet (see Table 1).\n5-week-old male C57BL/6J mice were accustomed to the laboratory environment for a week while feeding solid feed. They were randomly divided into the ND, HFD and carvacrol groups according to the randomized block design and reared for 10 weeks. Diet was provided between 10 and 11 a.m. every day along with water. Food intake was measured every day, and body weight was measured every 3 days. In order to avoid transient body weight increase due to feed intake, body weight was measured 2 hours after removing the feedbox.\nAfter fasting the test animal for at least 12 hours and anesthetizing with diethyl ether, blood, liver and abdominal fat tissue (epididymal, perirenal, mesenteric and retroperitoneal fat) were taken and weighed after washing with 0.1 M PBS (pH 7.4). The blood taken from the abdominal aorta was centrifuged at 1000×g for 15 minutes to isolate the serum.\nTotal cholesterol level, triglyceride level, glucose level and insulin level in plasma and lipid components in liver tissue were measured as follows. Total cholesterol level, triglyceride level and glucose level in plasma were measured 2 times using a commercially available kit (Bio Clinical System), and insulin level was measured by ELISA using a mouse Insulin kit (Shibayali, Japan). Lipid components were extracted from liver tissue according to Folch et al.'s method (Folch J, Lees M, Sloane Stanley G H. A simple method for the isolation and purification of total lipids from animal tissues. J. Biol. Chem. 1957; 226: 497-509) as follows. After adding 1 mL of distilled water to 0.25 g of liver tissue, the liver tissue was homogenized using a Polytron homogenizer (IKA-WERKE GmbH & Co., Ultra-Turrax, Staufen, Germany). After adding 5 mL of a chloroform/methanol mixture solution (2:1, v/v) to the homogenate and mixing well, centrifugation was performed at 1000×g for 10 minutes. Then, after separating the pellets and adding 2 mL of the chloroform/methanol mixture solution (2: 1, v/v) again to the supernatant, the same procedure was repeated to completely isolate the lipid components. After adding 3 mL of a chloroform/methanol/0.05% CaCl2 mixture solution (3:48:47, v/v/v) to thus obtained pellets and mixing for 1 minute, centrifugation was performed at 1000×g for 10 minutes. Finally, the resulting pellets were completely dried using nitrogen gas and the dried lipids were dissolved in 1 mL of methanol for analysis of the lipid components. Triglyceride level of the liver tissue was measured as in the plasma analysis using the same commercially available kit (Bio Clinical System).\nIn Table 2, the characters a, b and c indicate significance according to one-way ANOVA and Duncan's multiple range test (p<0.001). The atherogenic index was calculated by (total cholesterol−HDL cholesterol)/HDL cholesterol, and the insulin resistance index was calculated by 10^−3 pmol insulin×mmol glucose×L^−2."}, "[4]": {"settings": "0.1% carvacrol in high-fat diet"}, "[5]": {"settings": "0.1% carvacrol in high-fat diet, FIG. 2"}, "[6]": {"settings": "blood (plasma), 0.1% carvacrol in high-fat diet"}, "[7]": {"settings": "liver tissue, 0.1% carvacrol in high-fat diet"}}, "note": "Entries after “also recorded” stand apart in the source; their conditions may differ. Marks after values point to notes of the source that are not given here.", "data": [{"smiles": "Cc1ccc(C(C)C)cc1O", "note": "[Carvacrol, carvacrol]", "values": [{"measurement": "production of the final product of platelet aggregation thromboxane B2", "setting": "[1]", "value": "decreased"}, {"measurement": "proliferation of cancer cells", "setting": "[1]", "value": "inhibited"}, {"measurement": "fats stained with Oil Red O, OD value at 600 nm (cellular fat content)", "setting": "[2]; 0.1-100 μM, FIG. 1B", "value": "decreased the cellular fat content in a concentration-dependent manner; also recorded: decrease in OD value in a concentration-dependent manner"}, {"measurement": "concentrations at which differentiation of the preadipocytes 3T3-L1 was decreased", "setting": "[2]; concentration-dependent, 0.1, 1, 10, 50 and 100 μM every other day, FIG. 1A", "value": "≥ 10", "unit": "µM"}, {"measurement": "Liver weight", "setting": "[3]; [4]", "value": "4.1 ± 0.1^b g/100 g body wt"}, {"measurement": "decrease in LDL+VLDL cholesterol level in plasma (serum) vs HFD", "setting": "[3]; [4]", "value": 46, "unit": "%"}, {"measurement": "decrease in atherogenic index vs HFD", "setting": "[3]; [4]", "value": 44, "unit": "%"}, {"measurement": "decrease in cholesterol level in liver tissue vs HFD", "setting": "[3]; [4]", "value": 42, "unit": "%"}, {"measurement": "decrease in free fatty acid level in liver tissue vs HFD", "setting": "[3]; [4]", "value": 58, "unit": "%"}, {"measurement": "decrease in free fatty acid level in plasma (serum) vs HFD", "setting": "[3]; [4]", "value": 80, "unit": "%"}, {"measurement": "decrease in liver weight (liver-to-body weight ratio) vs HFD", "setting": "[3]; [4]", "value": 25, "unit": "%"}, {"measurement": "decrease in total cholesterol level in plasma (serum) vs HFD", "setting": "[3]; [4]", "value": 29, "unit": "%"}, {"measurement": "decrease in triglyceride level in liver tissue vs HFD", "setting": "[3]; [4]", "value": 48, "unit": "%"}, {"measurement": "decrease in triglyceride level in plasma (serum) vs HFD", "setting": "[3]; [4]", "value": 30, "unit": "%"}, {"measurement": "fasting blood sugar as compared to the HFD group", "setting": "[3]; [4]", "value": "significant decrease"}, {"measurement": "insulin level as compared to the HFD group", "setting": "[3]; [4]", "value": "significant decrease"}, {"measurement": "insulin resistance index as compared to the HFD group", "setting": "[3]; [4]", "value": "significant decrease"}, {"measurement": "decrease in epididymal fat weight vs HFD", "setting": "[3]; [5]", "value": 31, "unit": "%"}, {"measurement": "decrease in mesenteric fat weight vs HFD", "setting": "[3]; [5]", "value": 51, "unit": "%"}, {"measurement": "decrease in perirenal fat weight vs HFD", "setting": "[3]; [5]", "value": 54, "unit": "%"}, {"measurement": "decrease in retroperitoneal fat weight vs HFD", "setting": "[3]; [5]", "value": 23, "unit": "%"}, {"measurement": "decrease in total abdominal fat weight vs HFD", "setting": "[3]; [5]", "value": 36, "unit": "%"}, {"measurement": "Insulin resistance index", "setting": "[3]; 10^−3 pmol insulin×mmol glucose×L^−2, 0.1% carvacrol in high-fat diet", "value": "0.68 ± 0.08^b"}, {"measurement": "Atherogenic index", "setting": "[3]; (total cholesterol−HDL cholesterol)/HDL cholesterol, 0.1% carvacrol in high-fat diet", "value": "0.57 ± 0.18^b"}, {"measurement": "Insulin", "setting": "[3]; ELISA, 0.1% carvacrol in high-fat diet", "value": "0.58 ± 0.06^b ng/mL"}, {"measurement": "Free fatty acid", "setting": "[3]; [6]", "value": "280 ± 35^c uEq/L"}, {"measurement": "HDL cholesterol", "setting": "[3]; [6]", "value": "1.68 ± 0.16^ab mmol/L"}, {"measurement": "LDL + VLDL cholesterol", "setting": "[3]; [6]", "value": "1.11 ± 0.05^b mmol/L"}, {"measurement": "Total cholesterol", "setting": "[3]; [6]", "value": "2.73 ± 0.30^b mmol/L"}, {"measurement": "Triglyceride", "setting": "[3]; [6]", "value": "0.98 ± 0.14^b mmol/L"}, {"measurement": "Glucose", "setting": "[3]; fasting, blood (plasma), 0.1% carvacrol in high-fat diet", "value": "6.83 ± 0.31^b mmol/L"}, {"measurement": "Cholesterol", "setting": "[3]; [7]", "value": "45.4 ± 5.5^b μmol/g"}, {"measurement": "Free fatty acid", "setting": "[3]; [7]", "value": "10.3 ± 0.73^b uEq/g"}, {"measurement": "Triglyceride", "setting": "[3]; [7]", "value": "22.0 ± 6.0^b μmol/g"}]}]}
